Data from patent US9359373B1, “Lipophilic N-substituted norcantharimide derivatives and uses thereof” (priority 2014, dated 2016).
Where two headings read alike, the source gives them in different places.

Experiments:
HepG2 cells [1] = experiment: MTT cell viability, HepG2; format: cell-based, human
Procedure: (§1) Cell lines used in the present disclosure include human liver carcinonoma cell line HepG2, human bladder carcinoma cell line BFTC905, human colon carcinoma cell lines HT29 and SW480, and human leukemia cell lines HL60 and Jurkat T, and mouse lymphocytic leukemia cell line L1210. Each cell lines were cultured and maintained in Dulbecco's modified Eagle media (DMEM) or RPMI 1640 medium supplemented with 10% heat inactivated fetal bovine serum (FBS), 1% penicillin/streptomycin, in 5% CO2195% air at 37° C.
(§2) The absorbance of the solution at 540 nm was measured by spectrophotometer. The IC50 values were defined as the drug concentration that inhibit 50% cell growth by setting the viability of untreated cells as 100%. Values were represented as the mean±SD from at least 3 independent experiments.
(§3) Effects of the compounds of formula (I) of this disclosure, specifically, NOC15 and NC 15, on HepG2 cells (liver carcinoma), BFTC905 (bladder carcinoma), HT29 (colon carcinoma), SW480 (colon carcinoma) and HL60 (leukemia) were assessed by cell viability analysis in accordance with procedures described above, in which compound 2, and other known anti-cancer agents including 5-FU, cisplatin and doxorubicin were respectively used as positive controls.
In this example, effects of NOC15 or NC15 on HepG2 cells were assessed by cell viability analysis in accordance with procedures described above, in which compound 2 was used as a positive control.

HT29 = experiment: MTT cell viability, HT29; format: cell-based, human; conditions: Mean ± SD, read-out: Growth Inhibition IC50 HT-29
Procedure: as §1, §2, §3

SW480 = experiment: MTT cell viability, SW480; format: cell-based, human; conditions: Mean ± SD, read-out: Growth Inhibition IC50 SW480
Procedure: as §1, §2, §3

HL60 = experiment: MTT cell viability, HL60; format: cell-based, human; conditions: for IC50: MTT, 48 hours, Mean ± SD, read-out: Growth Inhibition IC50 HL-60; for response of leukemia cell line HL60 to treatment: in words, from Table 1
Procedure: as §1, §2, §3

BFTC905 = experiment: MTT cell viability, BFTC905; format: cell-based, human; conditions: Mean ± SD, read-out: Growth Inhibition IC50 BFTC905
Procedure: as §1, §2, §3

HepG2 cells [2] = experiment: Hoechst 33528 staining, nuclear morphological changes; format: cell-based, human; conditions: 40 μM, 48 hours, FIG. 1
Procedure: Staining with Hoechst 33528 was performed according to the method described previously (Huang et al., Cytotechnology 2009, 59, 201-208). Briefly, cells were treated with 40 μM norcantharidin, NOC15, or NC15 for 48 hours, then washed with PBS saline and stained with Hoechst 33528 (Sigma, St. Louis, Mo., USA) at a final concentration of 10 μg/mL. The slides were examined under a fluorescence microscope. Cells with a small nucleus, a high fluorescence intensity (due to chromatin condensation) or nuclear fragmentation were considered apoptotic.
To further investigate the role of apoptosis in the cytotoxicity of NOC15 and NC15, HepG2 cells were incubated with compound 2, NOC15 and NC15, respectively, for 48 hours; then were stained with Hoechst 33528 and examined by fluorescence microscope for any topical morphological changes.

HepG2 cells [3] = experiment: Cell cycle distribution by flow cytometry (PI), HepG2; format: cell-based, human; conditions: 48 hours, FIG. 2
Procedure: (§4) Cultured cells with or without pre-treatment of the compounds of this invention (i.e., norcantharidin, NOC15, or NC15, 10-60 μM for 48 hours) were harvested from the cultured media and fixed by incuating with 75% iced cold ehtanol and kept at −20° C. until analysis. The fixed cells were then washed with PBS, and treated with […] (200 μg/mL, 500 μL) for about 1.5 hour at 37° C. Precipitated cells were collected by centrifugation and re-suspended in a buffer solution containing propidium iodine (PI) (40 μg/ml) and incubated in the dark for 20 min at 20-25° C. before being subject to flow cytometry analysis, where cell numbers at respective cell cycles were determined.
(§5) HepG2 cells were treated with 10-60 μM of the test compounds for 48 hours, then cell cycle distribution and apoptosis analysis was analyzed by flow cytometry, with the subG1 phase being stained with propidium idoine (PI). Results are illustrated in FIGS. 2 and 3.

HepG2 cells [4] = experiment: Apoptotic analysis annexin-V/PI flow cytometry; format: cell-based, human; conditions: 10-60 μM, 48 hours, FIG. 3
Procedure: The percentage of apototic cells was determined according to the manufacturer's protocol by using an annexin-V/FITC kit/propidium iodine (PI) flow cytometer. To facilitate the detection of apoptosis, the treated cells were centrifuged for 5 min at a speed of 1,000×g at room temperature, and then resuspended and washed once with 5 mL PBS before being stained with annexin-V/PI (apoptosis detection kit, R&D Systems, Taipei, Taiwan).
as §5

[5] = system: human leukemia cells (Jurkat T cells); experiment: Cell viability (CCK-8), PMAI activated leukemia Jurkat T cells model; format: cell-based
Procedure: (§6) The cell viability assays were performed in 96-well plates. The 100 μl of cell suspensions (NHL or Jurkat T cells, 5×10^3 cells/well, serum-free medium) were inoculated in the wells and the plates were pre-incubated in the incubator for 24 hours (pre-incubated for 22 hours and stimulated with PMA 5 ng/ml plus ionomycin 250 ng/ml for 2 hours in PMAI-treated groups). Then, various concentrations of norcantharidin (0, 2, 4, 15, 30 and 60 μM) or NOC15 (0, 0.25, 0.5, 1, 2 and 4 μM) were added into the culture media in the wells. After 24 hours of incubation, the cell viability of NHL and Jurkat T cells was measured by cell counting kit-8 (CCK-8, Sigma). The half maximal inhibitory concentrations (IC50) of norcantharidin and NOC15 on Jurkat T cells and NHL cells were calculated.
(§7) In this example, a model of phorbol 12-myristate 13-acetate plus ionomycin (PMAI) activated leukemia Jurkat T cells model was employed to investigate the effects of the NOC15 on human leukemia cells (Jurkat T cells) and human lymphoblast cells (NHL).

[6] = system: human lymphoblast cells (NHL); experiment: Cell viability (CCK-8), normal lymphoblast cells; format: cell-based; conditions: 24 hours (NC15: 24 and 48 hours), FIG. 4, FIG. 6
Procedure: as §6, §7

Jurkat T cells = experiment: Cell cycle distribution by flow cytometry, Jurkat T cells; format: cell-based, human; conditions: for percentage of cells in subG1 phase: FIG. 5, FIG. 7
Procedure: as §4
Cell cycle distribution was determined by flow cytometry as described in the “Materials and Methods” section. Results is depicted in FIG. 5.
In this example, Jurkat T cells were treated with or without NC15 (2.513 μM) for 24 or 48 hours before being subject to cell cycle analysis. Results are depicted in FIG. 7.

L1210 cells = experiment: Syngeneic L1210 tumor in vivo therapy; parameters: species or system DBA/2 mice
Procedure: The DBA/2 mice (about 7 weeks old, 18-22 g) were obtained from BioLASCO Taiwan Co., Ltd. All mice were housed in specific pathogen-free condition with ad libitum access to water and laboratory chow. A solution of L1210 cells was injected into the subcutaneous tissue to establish a syngeneic tumor. Alternatively, the L1210 cells was injected peritoneally. All animal experiments were performed in accordance with the guidelines of the Animal Welfare Committee of Taipei Veterans General Hospital (Taiwan, R.O.C.).
(§8) To inoculate tumor, L1210 cells (1×10^6 cells per injection) were injected either subcutaneously or intraperitoneally to lab animals to generate tumors on day 1. After 7 days, NOC15 or NC15 (diluted in normal saline) was administered intra-peritoneally at a dose of 18 mg/kg every day for 7 days. The average body weight (BW) of the animals was measured daily.
After treatment, mice were sacrificed, and their tumors, livers and spleens were harvested and weighted, respectively; and white blood cells (WBC) counts were also measured.
(§9) Mice were inoculated with L1210 tumor cells in accordance with the procedures described in the section of “Materials and Methods.” For in vivo therapy, animals were given 18 mg/Kg NOC15 or NC15 by intra-peritoneal route, for a period of at least 7 days. Tumor size, animal body weight, respective weights of liver and spleen, as well as the white blood cell count of each animal were then measured respectively at the indicated time. Results are depicted in FIGS. 8 to 11, respectively.

[7] = Body weight of treated animals; format: in vivo, mice; conditions: 18 mg/Kg, compared with healthy normal control, FIG. 11
Procedure: as §8, §9

normal hepatic cells = experiment: Ex vivo growth of normal hepatic cells; format: cell-based; conditions: at about 8.2 μM
[8] = Homo sapiens, HepG2, 48 h, MTT, 48 hours, Mean ± SD, read-out: Growth Inhibition IC50 HepG2
[9] = Homo sapiens, HepG2, 24 h, Mean ± SD, read-out: Growth Inhibition On Hepatic Cancer Cells IC50 24 hrs
[10] = Homo sapiens, HepG2, 48 h, Mean ± SD, read-out: Growth Inhibition On Hepatic Cancer Cells IC50 48 hrs
[11] = Homo sapiens, HepG2, 72 h, Mean ± SD, read-out: Growth Inhibition On Hepatic Cancer Cells IC50 72 hrs
[12] = Homo sapiens, BFTC-905, 48 hours
[13] = MTT, 48 hours, Mean ± SD, read-out: Growth Inhibition IC50 HepG2

Row | SMILES | IC50 (HepG2 cells [1]; [8]) | IC50 (HT29; Homo sapiens, HT-29, 48 hours) | IC50 (SW480; Homo sapiens, SW480, 48 hours) | IC50 (HL60; Homo sapiens, HL-60) | IC50 (HepG2 cells [1]; [9]) | IC50 (HepG2 cells [1]; [10]) | IC50 (HepG2 cells [1]; [11]) | IC50 (BFTC905; [12]) | nuclear morphological changes (apoptosis features) (HepG2 cells [2]) | percentage of apoptotic cells / cell death (HepG2 cells [4]) | IC50 (HepG2 cells [1]; [13]) | IC50 (HT29; 48 hours) | IC50 (SW480; 48 hours) | IC50 (HL60) | response of leukemia cell line HL60 to treatment (HL60) | other results
1 | COc1cccc2c1C(=O)c1c(O)c3c(c(O)c1C2=O)C[C@@](O)(C(=O)CO)C[C@@H]3O[C@H]1C[C@H](N)[C@H](O)[C@H](C)O1 [Doxorubicin, doxorubicin] | 0.3 µM | 1.7 ± 0.2 µM | 0.5 ± 0.1 µM | 14.3 ± 0.9 µM | – | – | – | – | – | – | – | – | – | – | – | –
2 | O=C1OC(=O)C2C3CCC(O3)C12 (stereo not drawn) [Compound 2, 7-oxabicyclo[2.2.1]heptane-2,3-dicarboxylic anhydride, reference compound] | 42 ± 1.8 µM | 19.5 ± 0.2 µM | 49.1 ± 8.4 µM | > 100 µM | 48 ± 0.7 µM | 42 ± 1.8 µM | 22.8 ± 0.6 µM | 18.9 ± 0.3 µM | Significant morphological features of apotosis | cytoxic effect was only observed when high concentration of compound 2 was used | – | – | – | – | – | fraction of apoptotic cells (subG1) (HepG2 cells [3]; 10 μM): only a small fraction of apoptotic cells; fraction of apoptotic cells (subG1) (HepG2 cells [3]; 20 μM): 1.6%; fraction of apoptotic cells (subG1) (HepG2 cells [3]; 60 μM): 16.7%; cytotoxicity to leukemia Jurkat T cells ([5]; 24 hours (NC15: 24 and 48 hours), FIG. 4, FIG. 6): toxic; percentage of viable cells if pre-treated with PMA ([5]; PMA plus ionomycin pre-treatment, FIG. 4): increased slightly; cytotoxicity to normal lymphatic/lymphoblast cells (NHL) [6]: did not possess significant cytotoxicity
3 | O=c1[nH]cc(F)c(=O)[nH]1 [Compound 5-FU, 5-FU] | – | – | – | – | – | – | – | – | – | – | 40.2 ± 7.6 µM | > 100 µM | 32.7 ± 8.3 µM | > 100 µM | did not respond well | IC50 (BFTC905; 48 hours): > 100 µM
4 | N.N.[Cl][Pt][Cl] [Cisplatin, cisplatin] | – | – | – | – | – | – | – | – | – | – | 36.1 ± 3.1 µM | 24.1 ± 0.1 µM | 40.7 ± 1.2 µM | > 100 µM | did not respond well | –
5 | CC(C)=CCCC(C)=CCCC(C)=CCON1C(=O)C2C3CCC(O3)C2C1=O (stereo not drawn) [Compound 9, N-farnesyloxy-7-oxabicyclo[2.2.1]heptane-2,3-dicarboximide] | 8.3 ± 1.3 µM | 9.7 ± 1.7 µM | 18.5 ± 2.3 µM | 39 ± 1.1 µM | 10.7 ± 0.2 µM | 8.3 ± 1.3 µM | 8.2 ± 0.6 µM | 11.3 ± 1 µM | Significant morphological features of apotosis | dose-dependent | – | – | – | – | did respond | IC50 (HepG2 cells [1]; Homo sapiens, HepG2, hepatic cancerous cells, time not given, read-out: concentration inhibiting ex vivo growth of hepatic cancerous cells for about 50%): ~8.2 µM; accumulation of cells in G2/M phase (HepG2 cells [3]; 10-60 μM): inducing the accumulation of cells in G2/M phase; percentage of cells in subG1 phase (Jurkat T cells; treated 24 hours (NC15 2.513 μM)): increased; percentage of cells in subG1 phase (Jurkat T cells; treated 48 hours (NC15 2.513 μM)): increased; percentage of cells in G2/M phase (Jurkat T cells; treated 48 hours, FIG. 5C): increased; weight of liver (L1210 cells; IP-inoculated tumor, 18 mg/kg i.p., FIG. 9B): improved significantly; weight of spleen (L1210 cells; IP-inoculated tumor, 18 mg/kg i.p., FIG. 9C): improved significantly; increase in life span (L1210 cells; SC-inoculated tumors, 18 mg/kg i.p. daily, FIG. 8A): about 40%; weight of s.c. tumor (L1210 cells; SC-inoculated, 18 mg/kg i.p., FIG. 9A): Significant reduction; white blood cell (WBC) counts (L1210 cells; day 14, SC- or IP-injected L1210, 18 mg/kg i.p., FIG. 10): significant reductions; total body weight along the course of treatment [7]: gradually improved the total body weight; effect on normal hepatic cells (normal hepatic cells): un-affected
